Results taken from patent US4400384A, “5-o-Cyanobenzyl-4,5,6,7-tetrahydrothieno [3,2-c] pyridine methanesulfonate and other novel salts thereof” (Sanofi, S.A., priority 1980, dated 1983).
Entries after “also recorded” stand apart in the source; their conditions may differ.

Tests used:
dogs = experiment: Toxicity by intravenous administration in dogs; assay type: in vivo
Protocol: Further tests were conducted by intravenous administration of the MS salt to the dogs. In these tests 15 dogs were divided into three groups of 2 male and 3 female dogs each. One group was used as a control; only the 5 ml of […] aqueous saline vehicle being injected intravenously. The other two groups of dogs received intravenous injections of the MS salt in the same vehicle; one group a 2.5% solution of the MS salt at a dosage of 7.5 mg/Kg and the other group receiving the same solution at a dosage of 15 mg/Kg.

[1] = tested on: blood-platelet aggregation (collagen); experiment: Inhibitor action on blood-platelet aggregation, collagen method (ex vivo after gastric tube dosing); assay type: in vivo, female rats of the Wistar type; conditions: 100 mg/Kg base equivalent at 48, 24 and 2 h before blood drawing, controls 2.53
Protocol: The inhibitor action on blood-platelet aggregation of the salts of the present invention was determined by two different standard methods known to the art.
The second method is that described in Ferrand J. C., Lale A.--NUMERATION ET AGREGATION PLAQUETTAIRE A L AIDE DE L AUTOCOUNTER. APPLICATION A L ETUDE DE LA TICLOPIDINE. COMM. SYMPOSIUM TECHNICON INDUSTRIE (PARIS, June 15, 1978); Ferrand J. C., Lale A.--EVALUATION EX-VIVO DE L AGREGATION PLAQUETTAIRE PAR UNE TECHNIQUE AUTOMATIQUE SUR SANG TOTAL COMM. SOCIETE FRANCAISE DE BIOLOGIE CLINIQUE (PARIS Sept. 28, 1979); and J. C. Ferrand, A. Lale, D. Aubert and G. Barthelemy--APPRECIATION QUANTITATIVE DE L' ACTIVITE ANTI-AGREGANTE DE LA TICLOPIDINE PAR VOIE AUTOMATIQUE. COMM. REUNION DE L' ASOCIATION FRANCAISE DE PHARMACOLOGISTES DIJON (May 2-3, 1980), and is referred to hereafter as the collagen method.
Groups of 10 female rats of the Wistar type were each dosed with one of the base or one of the salts of the invention and with the corresponding maleate salt of Amselem U.S. Pat. No. 4,097,482, at periods of 48 hours, 24 hours and 2 hours prior to drawing blood for testing by the ADP and collagen techniques referred to above. The active medicaments were administered by means of a gastric tube in the form of a 5% aqueous solution of gum arabic. A dosage level of 100 mg/Kg was used for the base, and for the salts an amount was used sufficient to provide the equivalent amount of the base portion of the salt.

Vasodilator activity = assay type: in vivo; conditions: result in words
[2] = tested on: blood-platelet aggregation; experiment: Clinical study, second series: inhibition of blood-platelet aggregation; assay type: in vivo, human; conditions: oral capsules, 700 mg per day, 7 days plus morning of 8th day, 11 patients
Protocol: In a second series of tests, the MS salt was again administered orally in the form of capsules containing 175 mg of the active salt. Eleven patients were treated, each patient receiving 4 capsules per day containing a total of 700 mg of MS salt divided in two portions of 350 mg morning and evening, after meals, for 7 days, and on the 8th day in the morning only. Therefore, the total amount of active ingredient (MS salt) was 5250 mg to each subject.

red globules = experiment: Anti-sludge activity in vivo in the rat
[3] = tested on: effects of oxotremorine or reserpine; experiment: Modification of the effects of oxotremorine or reserpine; assay type: in vivo; conditions: alone or together with ethyl alcohol
[4] = Anti-inflammatory activity; assay type: in vivo; conditions: result in words; listed as MS salt, methanesulfonate

For `CS(=O)(=O)O.N#Cc1ccccc1CN1CCc2sccc2C1` [Methanesulfonate, 5-o-Cyanobenzyl-4,5,6,7-tetrahydrothieno [3,2-c] pyridine methanesulfonate], the “toxicity and tolerance in dogs (overall)” value (dogs; conclusion from oral and intravenous tests) was “of low toxicity and well-tolerated by dogs”, the death (dogs; intravenous, 7.5 and 15 mg/Kg, 2.5% solution in 9% aqueous saline, 23 consecutive days) was “without the death of any dog” and the “BLOOD PLATELET AGGREGATION, COLLAGEN” value [1] was 0.59. The “peripheral and cerebral vasodilator activity” value (Vasodilator activity) was “lacks the peripheral and cerebral vasodilator activity”, the vasodilator action (Vasodilator activity; listed as MS salt, methanesulfonate) was “without causing vasodilator action; also recorded: free of anti-inflammatory or vasodilator activity as is the MS salt” and the “inhibitory activity on blood-platelet aggregation in patients” value [2] was “very effective inhibitory activity on blood-platelet aggregation”. The “anti-sludge activity in vivo, intravenous” value (red globules; administered intravenously) was “also in vivo when administered orally or intravenously in the rat”, the “anti-sludge activity in vivo, oral” value (red globules; administered orally) was “also in vivo when administered orally” and the “modification of the effects of oxotremorine” value [3] was “does not modify the effects of oxotremorine”. For the same compound, the “modification of the effects of reserpine” value [3] was “does not modify the effects of oxotremorine or reserpine” and the anti-inflammatory activity [4] was “free of anti-inflammatory or vasodilator activity as is the MS salt; also recorded: without anti-inflammatory activity”.
